Test results: US20080312209A1, “Piperazine Heteroaryl Derivatives as Gpr38 Agonists” (Glaxo Group Limited, priority 2005, published 2008)

Key:
hGPR38R [1] = target: T1, hGPR38R (Homo sapiens, UniProt O43193); assay: GPR38 GTPγS functional agonist assay; assay type: biochemical; set-up: expressed in transfected cells; host or cells: HEK293 (transient transfection; P2 membrane fractions); settings: [35S]GTPγS SPA, HEK293 membranes with hGPR38R and Go G-protein; read-out: pEC50 in the GTPγS assay (converted)
Experimental: The potencies and intrinsic activities of the compounds of this invention can also be determined according to the [35S]GTPγS functional assay which is described herein. It has been found, using the [35S]GTPγS functional assay, that compounds of formula (I) appear to be partial or full agonists of the GPR38 receptor.
GPR38GTPγS Functional Agonist Assay Protocol
For each compound being assayed, in an Opti clear bottom 96 well plate, is added:—
(a) 20 μl of test compound (or 10 μl of guanosine 5′-triphosphate (GTP) as non-specific binding control) diluted to required concentration in assay buffer (20 mM N-2-Hydroxyethylpiperazine-N′-2-ethanesulfonic acid (HEPES)+100 mM NaCl+10 mM MgCl2, pH adjusted to 7.4 with NaOH); (b) 60 μl bead/membrane/GDP mix prepared by suspending wheat germ agglutinin-polyvinyltoluene (WGA-PVT) scintillation proximity assay (SPA) beads at 100 mg/ml in assay buffer followed by mixing with membrane (prepared in accordance with the methodology described above) and diluting in assay buffer to give a final volume of 60 μl which contains 10 μg protein and 0.5 mg bead per well—mixture is pre-mixed at 4° C. for 30 min on a roller and just prior to addition to the plate, 10 μM final concentration of guanosine 5′ diphosphate (GDP—diluted in assay buffer) is added; (c) 20 μl guanosine 5′ [γ35-S]thiotriphosphate, triethylamine salt (Amersham; radioactivity concentration=37 kBq/μl or 1 mCi/ml; Specific Activity 1160 Ci/mmol) diluted to 1.9 nM in assay buffer to give 0.38 nM final.
The plate is incubated on a shaker at 25° C. for 30 min followed by centrifugation for 5 min at 1500 rpm. The plate is read between 3 and 6 h after completion of centrifuge run in a Wallac Microbeta counter on a 1 min normalised tritium count protocol. Data is analysed using a 4-parameter logistic equation. Basal activity used as minimum.
(§1) The following alternative procedure may also be used:
Membranes are derived from bulk cell cultures of HEK293 cell lines transiently transfected with hGPR38R and Go G-protein. P2 membranes fractions are prepared, aliquoted and stored at −80° C.
For each compound being assayed, the following is added into a white Greiner 384 well plate:—
(a) 1 μl of test compound diluted to required concentration in DMSO. (b) 20 μl bead/membrane/Saponin/GDP mix prepared as follows;—suspension of LEADseeker wheat germ agglutinin (WGA) scintillation proximity assay (SPA) beads at 25 mg/ml in assay buffer (20 mM N-2-Hydroxyethylpiperazine-N′-2-ethanesulfonic acid (HEPES)+100 mM NaCl+10 mM MgCl2, pH adjusted to 7.4 with KOH) containing saponin at 150 ug/ml. Mixing of bead suspension with membranes at 500 ug/ml (prepared in accordance with the methodology described above) and diluting in assay buffer to give a final volume of 20 μl which contains 5 μg protein and 0.25 mg bead per well.
Mixture is pre-mixed for 30 minutes on a roller and just prior to addition to the plate, 3 μM final assay concentration of guanosine 5′ diphosphate (GDP) (diluted in assay buffer) is added.
(c) 25 μl guanosine 5′ [γ35-S]thiotriphosphate, triethylamine salt (Amersham; radioactivity concentration=37 kBq/μl or 1 mCi/ml; Specific Activity 1160 Ci/mmol) diluted to 0.6 nM in assay buffer to give 0.33 nM final assay concentration.
The plate is then spun for 2 minutes at 1500 rpm and then incubated at room temperature for 4 hours. The plate is then read on a Viewlux Plux (Perkin Elmer). Data is analysed using a 4-parameter logistic equation.
Target sequence in this assay (O43193 whole entry): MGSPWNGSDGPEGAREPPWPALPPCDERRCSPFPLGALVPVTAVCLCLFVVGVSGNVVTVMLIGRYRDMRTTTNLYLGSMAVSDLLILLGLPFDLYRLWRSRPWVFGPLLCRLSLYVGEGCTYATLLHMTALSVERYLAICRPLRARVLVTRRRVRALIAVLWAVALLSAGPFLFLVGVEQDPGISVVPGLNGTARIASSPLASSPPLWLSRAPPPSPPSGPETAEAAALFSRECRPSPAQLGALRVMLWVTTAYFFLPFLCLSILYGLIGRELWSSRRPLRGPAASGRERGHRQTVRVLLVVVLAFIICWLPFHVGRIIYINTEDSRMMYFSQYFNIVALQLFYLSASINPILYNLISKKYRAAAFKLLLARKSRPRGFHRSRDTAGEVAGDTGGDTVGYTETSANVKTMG
Target sequence in this assay (P09471 2-354 partner limits assumed): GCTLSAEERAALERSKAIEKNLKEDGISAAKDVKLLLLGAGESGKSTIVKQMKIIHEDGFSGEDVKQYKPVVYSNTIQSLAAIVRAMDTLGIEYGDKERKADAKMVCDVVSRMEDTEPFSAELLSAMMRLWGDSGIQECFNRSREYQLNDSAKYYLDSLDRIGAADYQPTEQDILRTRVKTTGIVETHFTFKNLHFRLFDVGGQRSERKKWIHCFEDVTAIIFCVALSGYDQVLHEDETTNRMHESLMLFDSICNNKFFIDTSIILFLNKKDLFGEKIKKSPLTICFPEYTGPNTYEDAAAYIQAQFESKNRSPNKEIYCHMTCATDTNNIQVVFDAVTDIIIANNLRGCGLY
Target sequence in this assay (P62873 2-340 partner limits assumed): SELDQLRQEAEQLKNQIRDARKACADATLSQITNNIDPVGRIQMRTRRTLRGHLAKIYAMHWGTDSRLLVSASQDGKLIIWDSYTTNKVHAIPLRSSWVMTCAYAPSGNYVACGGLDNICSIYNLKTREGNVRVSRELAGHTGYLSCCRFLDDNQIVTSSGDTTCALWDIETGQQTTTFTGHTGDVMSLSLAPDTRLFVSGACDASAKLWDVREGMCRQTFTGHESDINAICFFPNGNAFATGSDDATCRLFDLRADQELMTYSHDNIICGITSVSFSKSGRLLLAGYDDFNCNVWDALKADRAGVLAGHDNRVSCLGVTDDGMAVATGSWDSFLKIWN
Target sequence in this assay (P59768 2-68 partner limits assumed): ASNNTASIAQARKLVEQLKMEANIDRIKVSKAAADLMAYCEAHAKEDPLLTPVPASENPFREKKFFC

hGPR38R [2] = target: T1, hGPR38R; assay: GPR38 FLIPR functional agonist assay; assay type: cell-based; set-up: expressed in transfected cells; settings: HEK-293 cells stably expressing the GPR38 receptor; agonist response, Fluo-4 fluorescence; read-out: pEC50 in the FLIPR assay (converted)
Experimental: The potencies and efficacies of the compounds of this invention for GPR^38 can be determined by FLIPR assay performed on the human cloned receptor as described herein. It has been found, using the FLIPR functional assay, that compounds of formula (I) appear to be partial or full agonists of the GPR38 receptor.
GPR38FLIPR Functional Agonist Assay Protocol
HEK-293 cells stably expressing the GPR38 receptor were seeded (10,000 cells/well) into poly-D-lysine coated 384-well black-wall, clear-bottom microtitre plates (Becton Dickinson) 24 h prior to assay. On day of assay, cells were washed (×2) with 80 ul of assay buffer (Hanks Balanced Salts Solution (HBSS), 10 mM HEPES, 200 μM Ca^2+, 2.5 mM probenecid) using the EMBLA cell washer. After the final wash, buffer was aspirated to leave a residual volume of 30 ul on the cells. Cells were loaded with 1 μM (final) Fluo-4-AM fluorescent indicator dye (TefLabs) in assay buffer, (20 ul loading solution added to each well using the Multidrop). Plates were incubated for 1 h at 37° C., before being washed (×3) with 80 ul assay buffer using the EMBLA cell washer; 30 ul residual being left after the final wash. Plates were then assayed on a Fluorometric Imaging Plate Reader (FLIPR, Molecular Devices). Test compounds were prepared in assay buffer without probenecid, but containing 0.03% CHAPS. In the FLIPR, 10 ul of test compound was added to the cells and changes in fluorescence measured over a 2 min timeframe. Maximum change in fluorescence over baseline was used to determine agonist response and concentration response curves were constructed, using a 4-parameter logistic equation.
as §1
Target sequence in this assay (O43193 whole entry): as the sequence (O43193 whole entry) above
HEK-293 cells stably expressing the GPR38 receptor were seeded (30,000 cells/100 ul growth media/well) into poly-D-lysine coated 96-well black-wall, clear-bottom microtitre plates (Corning) 24 hours prior to assay. On the day of assay the cells were loaded with 2 μM (final) Fluo-4-AM fluorescent indicator dye (Molecular Probes) and 1 mM (final) probenicid in assay buffer (145 mM sodium chloride, 2.5 mM potassium chloride, 10 mM Hepes, 10 mM glucose, 1.2 mM magnesium chloride, 1.5 mM calcium chloride and 0.1% BSA) (50 ul loading solution added to each well). Plates were incubated for 1 hour at 25° C., before being washed 4 times with 100 ul assay buffer using the EMBLA cell washer; 150 ul residual being left after the final wash. The cells were then incubated at 25° C. for 20 minutes and the plates were then assayed on a Fluorometric Imaging Plate Reader (FLIPR, Molecular Devices). Test compounds were prepared in assay buffer without probenecid. In the FLIPR, 50 ul of test compound was added to the cells and changes in fluorescence measured over a 2 minute timeframe. Maximum change in fluorescence over baseline was used to determine agonist response and concentration response curves were constructed, using a 4-parameter logistic equation.

Molecule `C[C@@H]1CN(Cc2ccc(-c3cccnc3C(=O)N3CCC(Nc4cccc(F)c4)C3)cc2)C[C@H](C)N1` (stereo partly drawn) [Example 33, 1-{[3-(4-{[(3R,5S)-3,5-dimethyl-1-piperazinyl]methyl}phenyl)-2-pyridinyl]carbonyl}-N-(3-fluorophenyl)-3-pyrrolidinamine] has an EC50 (hGPR38R [1]) of under 3.16 µM and an EC50 (hGPR38R [2]) of under 0.316 µM.
